Reference: publication PMC2965657, “Antioxidant Biomarkers from Vanda coerulea Stems Reduce Irradiated HaCaT PGE-2 Production as a Result of COX-2 Inhibition” (PLoS ONE, 2010)
Where two headings read alike, the source gives them in different places.

Tests used:
[1] = DPPH radical scavenging (DPPH discolouration); settings: mean ± sd; half-maximal neutralization of radical DPPH
Protocol: (§1) All in vitro radical-scavenging experiments (DPPH, ^•OH/luminol chemiluminescence) and IC50 calculations were assayed as previously described by Parejo et al. Results were expressed as percentage inhibition of DPPH discolouration and luminol chemiluminescence reduction, respectively. The concentration effect (logarithmic curve) obtained for each compound was used to calculate IC50. Serial dilutions of 1–5, and quercetin (used as standard reference) were prepared in MeOH.

[2] = •OH radical scavenging (luminol chemiluminescence); settings: mean ± sd
Protocol: as §1

[3] = test system: H2O2 stressed HaCaT cells; assay: Intracellular ROS neutralization with DCFH-DA probe in H2O2 stressed HaCaT; type: cell-based; settings: Homo sapiens, H2O2 100 µM, mean ± sd
Protocol: (§2) For measurement of reactive oxygen species neutralization and PGE-2 quantification with Vanda coerulea stem biomarkers, HaCaT cells were seeded in black 96-well microplates (Greiner Bio One 655090) at a concentration of 10^3 cells/well in complemented KSFM with 5% FBS. Microplates were incubated during 24 h (37°C, 5% CO2) before UVB irradiation at 60 mJ/cm^2 and treatment. For western blot analysis HaCaT cells were seeded at a density of 10^6 cells/ 100 mm dishes and incubated during 48 h before irradiation with UVB at 60 mJ/cm^2 (UV Lamp, VL-6LM, Vilber Lourmat) and treatment. All experiments were performed at 90% cell confluency. Cell viability was previously evaluated thanks to XTT analysis according to Roehm NW et al. Serial dilutions of 1–3, were prepared in DMSO (0.1% v/v final concentration). The first higher concentration tested was not cytotoxic (data not shown).
The DCFH-DA method was used to detect the levels of intracellular ROS [32] DCFH-DA diffuses into cells, where it is hydrolyzed by intracellular esterase to polar 2′,7′-dichlorodihydrofluorescein. This non-fluorescent fluorescein analog is oxidized by intracellular oxidants to a highly fluorescent, 2′,7′-dichlorofluorescein. Tocopherol [Sigma] (25 µM) was used as a positive reference. HaCaT cells were seeded as described and treated with serial dilutions of 1–3 and quercetin (standard reference) after 24 h incubation. Treated microplates were further incubated during 24 h (37°C, 5% CO2). HaCaT cells were washed with phosphate buffer saline (PBS), and DCFH-DA (0.05 mM) was added to the cells. 45 min after incubation, cells were stimulated by a H2O2 solution (100 µM in PBS) to generate an oxidative stress. Immediately after F(T0) and 40 min after stimulation F(T40), DCFH fluorescence was detected at an excitation wavelength of 485 nm and an emission wavelength of 535 nm, using a SpectraFluor Plus spectrofluorometer (Tecan). Two kinds of assay controls were used: negative control was non-stimulated cells and positive control was H2O2 stressed cells (DMSO 0.1% v/v). Results were expressed in percentage of fluorescence inhibition (% of ROS neutralization) calculated by comparison with H2O2 stimulated cells.
(% of ROS neutralization) = [1- [F(T40)-F(T0)] sample/[F(T40)-F(T0)] positive control] ×100.
Inhibition percentages were plotted according to compounds 1–3 and quercetin concentrations. Logarithmic regression analysis of the mean replicate values was used to calculate IC50 (Concentration causing half-maximal neutralization of ROS on H2O2 stressed HaCaT)

[4] = test system: UVB (60 mJ/cm^2) irradiated HaCaT keratinocytes; assay: PGE-2 production by UVB irradiated HaCaT (EIA); type: cell-based, human; settings: for IC50: read-out: IC50 inhibition of HaCaT PGE-2 production
Protocol: as §2
Indomethacin (2.79 µM), a non-steroidal COX inhibitor, was used as a positive reference. Treated microplates were incubated at 37°C, 5% CO2. Untreated irradiated and non irradiated cells (DMSO 0.1% v/v final) were respectively used as positive and negative controls. After 24 h, supernatants were harvested for PGE-2 concentration measurement and BCA assay was realized to determine total cellular protein in each well. PGE-2 concentration was measured using the enzyme immunoassay Parameter™ PGE-2 kit (R&D Systems) according to the manufacturer's instructions. Each PGE-2 quantification (QPGE-2) was reported to total protein concentration per well.
Results were expressed as inhibition percentage of PGE-2 (I PGE-2) production compared with untreated irradiated cells (positive control).
I PGE-2 = 100- ((QPGE2) sample/ (QPGE2) positive control) ×100.
Inhibition percentages were plotted according to compounds 1–3 concentrations. Logarithmic regression analysis of the mean replicate values was used to calculate IC50 (Concentration causing half-maximal Inhibition of irradiated HaCaT PGE-2 production)

[5] = test system: COX-2 expression in irradiated HaCaT cells; assay: COX-2 expression by Western blot in UVB irradiated HaCaT; type: cell-based, human; settings: 2.87 µM, 16 h, COX-2/β-actin vs UVB+
Protocol: as §2
After UVB irradiation 100 mm dishes were treated with stilbenoids 1–3 at 23 µM and 2.87 µM in a serum free medium and incubated during 16 h (37°C, 5% CO2). Untreated irradiated (UVB+) and non irradiated (UVB-) cells were used as positive and negative controls respectively. […] The protein concentration of each sample was determined using a Bradford assay. […] Results were expressed as fold decrease compared to the (UVB+) control. […]

human recombinant COX-2 = biological target: T1, human recombinant COX-2 (Homo sapiens, UniProt P35354); assay: COX-2 enzyme activity (PGE-2 formation from arachidonic acid); type: biochemical; settings: for IC50: 2 µM arachidonic acid, mean ± sd, read-out: IC50 inhibition of COX-2 enzyme activity; for inhibition of COX-2 enzyme activity: up to 100 µM
T1 sequence (P35354 18-604): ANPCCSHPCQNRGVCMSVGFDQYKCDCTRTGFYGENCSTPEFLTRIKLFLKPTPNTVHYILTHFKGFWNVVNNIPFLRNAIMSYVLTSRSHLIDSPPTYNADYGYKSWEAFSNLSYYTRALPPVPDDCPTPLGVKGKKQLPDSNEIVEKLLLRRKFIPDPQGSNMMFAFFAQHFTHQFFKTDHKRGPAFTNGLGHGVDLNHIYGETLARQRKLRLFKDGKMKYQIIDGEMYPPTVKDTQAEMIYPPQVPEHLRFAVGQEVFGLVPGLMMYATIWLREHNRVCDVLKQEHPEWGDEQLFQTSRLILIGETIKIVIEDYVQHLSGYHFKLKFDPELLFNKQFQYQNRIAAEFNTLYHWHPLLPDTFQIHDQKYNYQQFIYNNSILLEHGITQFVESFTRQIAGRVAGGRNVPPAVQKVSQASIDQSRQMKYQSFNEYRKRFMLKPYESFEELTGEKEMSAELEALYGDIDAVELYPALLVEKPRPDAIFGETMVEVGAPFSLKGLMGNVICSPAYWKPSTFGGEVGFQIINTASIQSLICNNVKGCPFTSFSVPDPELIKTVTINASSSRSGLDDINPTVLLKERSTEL
Protocol: Serial dilutions of 1–3 were prepared in DMSO. Six concentrations were tested from 0.1 µM to 100 µM for imbricatin (1), from 0.03 to 100 µM for methoxycoelonin (2) and from 0.3 µM to 100 µM for gigantol (3).
Stilbenoids 1–3, indomethacin and water (negative control) were pre-incubated for 20 min at 22°C with the human recombinant COX-2 enzyme (0.2 µg) in buffer containing 100 mM Tris-HCl (pH 8.0), 2 mM phenol and 1 µM hematine. Thereafter, the reaction was initiated by addition of 2 µM arachidonic acid and the mixture was incubated for 5 min at 22°C. For basal control measurements, arachidonic acid was omitted from the medium. Indomethacin was used as positive inhibitory reference.
Following incubation, the reaction was stopped by the addition of 1 M HCl then 1 M Tris/HCl (pH 8.0) followed by cooling to 4°C. The amount of PGE-2 present in the reaction mixture was quantified using an EIA detection kit (Cayman Chemical).
The results were expressed as inhibition percentage of the control enzyme activity:
100–[(activity measured in the presence of the compound/control enzyme activity) ×100]
The IC50 values (concentration causing a half-maximal inhibition of control enzyme activity) and Hill coefficients (nH) were determined by non-linear regression analysis of the inhibition curves generated with mean replicate values using Hill equation curve fitting.

[6] = cited from earlier work
[7] = test system: irradiated (UVB 60 mJ/cm2) normal human epidermal keratinocytes (NHEK); assay: PGE-2 release from UVB irradiated normal human epidermal keratinocytes; type: cell-based; settings: light or radiation study, vs UVB+ control, read-out: inhibition of PGE-2 production
Protocol: Supplementary file pone.0013713.s001.tif: Figure S1 Concentration-dependent effect of stilbenoids (1-3) on PGE-2 release from irradiated (UVB 60 mJ/cm2) normal human epidermal keratinocytes (NHEK). Histogram represents the quantity of PGE-2 produced (PGE-2/ total NHEK proteins pg/µg) according to different treatments. Untreated irradiated (UVB+) and non irradiated (UVB-) NHEK were used as positive and negative controls, respectively. […] Inhibition percentages of PGE-2 release were calculated by comparison with the positive control (UVB+). Values represen mean ± sds calculated with three independent experiments. Treatment groups were compared by using one way analysis of variance ANOVA post-hoc test. Student paired t test was used to compare each stilbenoid effect to the positive control. Statistical significance (*) was set at p<0.05. Significant differences were observed between each biomarker effect. IC50 were calculated with more points than those represented here on the graph. (0.82 MB TIF) Click here for additional data file.

[8] = Homo sapiens, light or radiation study, UVB 60 mJ/cm^2 irradiated HaCaT, 24 h, mean ± sd

Compound | IC50 [1] [µM] | IC50 [2] [nM] | IC50 [3] [µM] | IC50 (human recombinant COX-2) [µM] | inhibition of COX-2 enzyme activity (human recombinant COX-2) | IC50 [4, 8] [µM] | other results
COc1cc(O)cc(CCc2ccc(O)c(OC)c2)c1 [Gigantol (3), Gigantol] | 14 ± 1.69 | 157 ± 39 | 20.6 ± 0.5 | ≥ 100 | did not display significant inhibition |  | inhibition of PGE-2 production ([4]; 2.87 µM, UVB irradiated HaCaT): strong inhibition; fold stronger inhibition of PGE-2 production on human HaCaT than on murine macrophage RAW 264.7 ([4]; HaCaT (this work) versus RAW 264.7 (ref 38)): 16 fold; IC50 inhibition of HaCaT PGE-2 production ([4]; UVB 60 mJ/cm^2 irradiated HaCaT, 24 h, mean ± sd): No concentration-dependanteffect; effect on UVB-induced COX-2 expression [5]: did not inhibit; IC50 ([6]; Zhang X et al): 56.4 µM
COc1c(O)cc2c3c1COc1cc(O)cc(c1-3)CC2 [Imbricatin (1), Imbricatin] | 8.37 ± 0.61 | 34 ± 11 | 8.8 ± 1.7 | 12 ± 1.2 | inhibited significantly | 12.2 ± 2.9 | IC50 ([6]; Guo XY et al): 8.8 µM
COc1cc2c(cc1O)CCc1cc(O)cc(OC)c1-2 [Methoxycoelonin (2), Methoxycoelonin] | 9.01 ± 0.93 | 35 ± 8 | 9.4 ± 2.1 | 5.8 ± 1.2 | inhibited significantly | 19.3 ± 3.8 | 
Coelonin [Coelonin (5)] | 8.47 ± 1.58 | 79 ± 18 |  |  |  |  | IC50 ([6]; Wang J et al): 16.7 µM
O=c1c(O)c(-c2ccc(O)c(O)c2)oc2cc(O)cc(O)c12 [Quercetin, reference compound] | 2.42 ± 0.65 | 45 ± 12 | 13.8 ± 2.2 |  |  |  | 
COc1ccc2c(c1)c(CC(=O)O)c(C)n2C(=O)c1ccc(Cl)cc1 [Indomethacin, reference compound] |  |  |  |  |  | 2.7 ± 0.7 | inhibition at 2.79 µM ([4]; Homo sapiens, light or radiation study, 2.79 µM, UVB irradiated HaCaT, vs UVB+ control): 54%; inhibition at 2.79 µM [7]: 86%
Oc1cc2c3c(c1)COc1cc(O)cc(c1-3)CC2 [Flavidin (4), Flavidin] | 6.61 ± 1.07 | 76 ± 14 |  |  |  |  | 
